Reference: US20110105457A1, “HETEROCYCLIC COMPOUND HAVING INHIBITORY ACTIVITY ON PI3K” (SHIONOGI & CO., LTD., priority 2008, published 2011)

Columns and labels:
[1] = target: T1, PI-3 kinase γ (Homo sapiens, UniProt P48736); experiment: PI3Kγ inhibitory activity, PI3-kinase HTRF assay (Millipore); format: biochemical; conditions: 0.5 h; compound 50 μM; read-out: Inhibition ratio % (50 μM)
Summary of the method: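 HTRF assay: PI3Kγ preincubated 10 min with compound and PIP2 substrate in MgCl2/DTT buffer, then reaction started with ATP and run 30 min at room temperature before EDTA/biotin-PIP3 quench. Read after 18 h with Eu anti-GST/GST-PH domain/APC-streptavidin as 665/620 nm ratio; inhibition relative to no-compound (100%) and no-enzyme (0%) wells.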

[2] = target: T1, PI-3 kinase γ; experiment: PI3Kγ inhibitory activity (Ki value), HTRF assay; format: biochemical; conditions: calculated from IC50, test ATP 10 μM
Experimental: The PI3Kγ inhibitory activity (Ki value) of a compound was evaluated according to the following procedure.
5 μL of a compound solution comprising 10% DMSO and 200 μM of a compound was changed to 5 μL of a compound solution comprising 10% DMSO and 200, 64, 20, 6.4, 2, 0.64, or 0.20 μM of the compound (optionally, this is diluted to a lower concentration). By a method similar to the method for measuring PI3Kγ inhibitory activity, inhibition ratios were measured in the presence of the compound of 50, 16, 5, 1.6, 0.5, 0.16, and 0.05 μM (optionally, a lower concentration), and then an IC50 value was calculated by a logistic approximation method, or the linear regression method using two concentrations that across 50% inhibition. Separately, 5 μL of 40 μM ATP/10 mM MgCl2/5 mM DTT at the time of the start of a reaction in the absence of a compound was changed to 5 μL of 80, 40, 20, 10, 5, 2.5, 1.25, or 0.625 μM ATP/10 mM MgCl2/5 mM DTT, and then ratios of HTRF was measured by a similar method. The value of subtracting an HTRF ratio at each ATP concentration from an HTRF ratio in the absence of PI-3 kinase γ was defined as a value of multiplying reaction rate v by a constant to calculate the Michaelis-Menten constant Km by the Lineweaver-Burk plot method. A Ki value of a compound was calculated by the following formula.

[3] = Solubility test; format: physicochemical; conditions: 25 °C, fassgf or other biorelevant, kinetic from dmso stock, artificial intestinal juice pH 6.8, 1% DMSO, 25 degrees Celsius
Experimental: 10 mM compound solution was prepared using DMSO, and then 6 μL of the compound solution was added to 594 μL of artificial intestinal juice in pH 6.8 (to 250 mL of 0.2 mol/L potassium dihydrogen phosphate reagent solution was added 118 mL of 0.2 mol/L NaOH reagent solution and water to provide a final volume of 1000 mL). After standing at 25 degrees Celsius for 16 hours, the mixed solution was filtrated with suction. The filtrate was diluted twice with methanol/water (1/1), and then a concentration in the filtration was measured with HPLC or LC/MS/MS by the absolute calibration method.

[4] = target: T2, CYP3A4 (Homo sapiens, UniProt P08684); experiment: CYP inhibition test, pooled human liver microsome, hydroxylation of terfenadine; format: in vitro ADME
T2 construct: Using a pooled human liver microsome commercially available; from tissue; host or cells: pooled human liver microsomes
Experimental: (§1) Using a pooled human liver microsome commercially available, and selecting as indexes O-de-ethylation of 7-ethoxyresorufin (CYP1A2), methyl-hydroxylation of tolbutamide (CYP2C9), 4′-hydroxylation of mephenyloin (CYP2C19), O-demethylation of dextromethorphan (CYP2D6), and hydroxylation of terfenadine (CYP3A4), which are typical substrate metabolic reactions of human main CYP5 molecular species (CYP1A2, 2C9, 2C19, 2D6, and 3A4), it was evaluated in what degree the amount of each metabolite produced was inhibited by a test compound.
(§2) The reaction condition is as follows: substrate, 0.5 μmol/L of ethoxyresorufin (CYP1A2), 100 μmol/L of tolbutamide (CYP2C9), 50 μmol/L of S-mephenyloin (CYP2C19), 5 μmol/L of dextromethorphan (CYP2D6), and 1 μmol/L of terfenadine (CYP3A4); reaction time, 15 minutes; reaction temperature, 37 degrees Celsius; enzyme, pooled human liver microsome 0.2 mg protein/mL; test drug concentration, 1, 5, 10, and 20 μmol/L (4 points).
(§3) To a 96-well plate was added five kinds of substrates, a human liver microsome, and a test drug in 50 mM Hepes buffer solution as a reaction solution in the aforementioned constitution. A coenzyme NADPH was added to start a metabolic reaction, which is an index. After reacting at 37 degrees Celsius for 15 minutes, a solution of methanol/acetonitrile (1/1 (v/v)) was added to quench the reaction. After centrifugation at 3000 rpm for 15 minutes, resorufine (CYP1A2 metabolite) in the supernatant was quantitated with a fluorescence multilabel counter, and hydroxylated tolbutamide (CYP2C9 metabolite), 4′-hydroxylated mephenyloin (CYP2C19 metabolite), […] (CYP2D6 metabolite), terfenadine in alcohol form (CYP3A4 metabolite) were quantitated with LC/MS/MS.
(§4) The case that only DMSO, a solvent which dissolved a drug, was added to a reaction system was defined as a control (100%). The remaining activity (%) at each concentration in cases that a test drug solution was added was calculated, and then IC50 was calculated with a concentration and an inhibition ratio by an inverse estimation using a logistic model.

[5] = target: T3, CYP2C19 (Homo sapiens, UniProt P33261); experiment: CYP inhibition test, pooled human liver microsome, 4′-hydroxylation of mephenyloin; format: in vitro ADME; conditions: S-mephenyloin
T3 construct: Using a pooled human liver microsome commercially available; from tissue; host or cells: pooled human liver microsomes
Experimental: as §1, §2, §3, §4

[6] = target: T4, CYP2D6 (Homo sapiens, UniProt P10635); experiment: CYP inhibition test, pooled human liver microsome, O-demethylation of dextromethorphan; format: in vitro ADME
T4 construct: Using a pooled human liver microsome commercially available; from tissue; host or cells: pooled human liver microsomes
Experimental: as §1, §2, §3, §4

[7] = target: T5, CYP2C9 (Homo sapiens, UniProt P11712); experiment: CYP inhibition test, pooled human liver microsome, methyl-hydroxylation of tolbutamide; format: in vitro ADME
T5 construct: Using a pooled human liver microsome commercially available; from tissue; host or cells: pooled human liver microsomes
Experimental: as §1, §2, §3, §4

[8] = target: T6, CYP1A2 (Homo sapiens, UniProt P05177); experiment: CYP inhibition test, pooled human liver microsome, O-de-ethylation of 7-ethoxyresorufin; format: in vitro ADME
T6 construct: Using a pooled human liver microsome commercially available; from tissue; host or cells: pooled human liver microsomes
T6 sequence (P05177 1-516): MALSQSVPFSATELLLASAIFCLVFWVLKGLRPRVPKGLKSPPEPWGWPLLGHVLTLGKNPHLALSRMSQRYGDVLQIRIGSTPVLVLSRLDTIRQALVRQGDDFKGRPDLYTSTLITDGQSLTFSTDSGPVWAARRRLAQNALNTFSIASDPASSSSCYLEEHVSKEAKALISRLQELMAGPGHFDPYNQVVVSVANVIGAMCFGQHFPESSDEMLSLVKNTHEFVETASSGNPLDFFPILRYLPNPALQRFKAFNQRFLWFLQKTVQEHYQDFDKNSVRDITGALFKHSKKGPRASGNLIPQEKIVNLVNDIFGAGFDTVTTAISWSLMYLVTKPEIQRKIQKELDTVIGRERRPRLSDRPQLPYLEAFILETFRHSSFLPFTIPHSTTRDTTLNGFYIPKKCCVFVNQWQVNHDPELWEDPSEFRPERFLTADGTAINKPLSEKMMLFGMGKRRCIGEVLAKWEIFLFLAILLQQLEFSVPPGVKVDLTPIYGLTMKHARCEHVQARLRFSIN
Experimental: as §1, §2, §3, §4

T5 sequence (P11712 whole entry): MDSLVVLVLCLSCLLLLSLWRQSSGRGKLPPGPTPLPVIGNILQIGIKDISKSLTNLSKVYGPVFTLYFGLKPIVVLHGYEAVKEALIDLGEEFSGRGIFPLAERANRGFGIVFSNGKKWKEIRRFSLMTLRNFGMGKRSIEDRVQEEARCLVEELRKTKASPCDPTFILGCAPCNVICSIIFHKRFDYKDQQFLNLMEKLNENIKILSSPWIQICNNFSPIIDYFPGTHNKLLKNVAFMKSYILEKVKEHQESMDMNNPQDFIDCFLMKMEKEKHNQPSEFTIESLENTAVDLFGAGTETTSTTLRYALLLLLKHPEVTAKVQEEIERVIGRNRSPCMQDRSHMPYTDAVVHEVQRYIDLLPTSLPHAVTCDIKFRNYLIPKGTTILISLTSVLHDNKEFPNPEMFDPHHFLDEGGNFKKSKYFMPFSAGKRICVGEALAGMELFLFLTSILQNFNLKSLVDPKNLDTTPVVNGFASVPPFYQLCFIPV
T3 sequence (P33261 whole entry): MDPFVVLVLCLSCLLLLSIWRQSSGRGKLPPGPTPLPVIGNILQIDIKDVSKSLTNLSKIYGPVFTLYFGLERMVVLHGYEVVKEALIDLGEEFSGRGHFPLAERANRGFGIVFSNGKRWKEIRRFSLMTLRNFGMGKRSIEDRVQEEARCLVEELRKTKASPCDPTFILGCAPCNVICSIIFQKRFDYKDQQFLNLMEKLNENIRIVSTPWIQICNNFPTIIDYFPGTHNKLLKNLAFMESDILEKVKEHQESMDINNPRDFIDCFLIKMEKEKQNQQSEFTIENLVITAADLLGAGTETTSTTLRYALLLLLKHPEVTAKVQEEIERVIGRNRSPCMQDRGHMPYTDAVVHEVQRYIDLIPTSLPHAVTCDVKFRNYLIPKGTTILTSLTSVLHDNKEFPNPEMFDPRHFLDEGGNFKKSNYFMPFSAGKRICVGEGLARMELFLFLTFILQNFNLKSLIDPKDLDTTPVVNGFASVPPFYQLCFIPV
T4 sequence (P10635 whole entry): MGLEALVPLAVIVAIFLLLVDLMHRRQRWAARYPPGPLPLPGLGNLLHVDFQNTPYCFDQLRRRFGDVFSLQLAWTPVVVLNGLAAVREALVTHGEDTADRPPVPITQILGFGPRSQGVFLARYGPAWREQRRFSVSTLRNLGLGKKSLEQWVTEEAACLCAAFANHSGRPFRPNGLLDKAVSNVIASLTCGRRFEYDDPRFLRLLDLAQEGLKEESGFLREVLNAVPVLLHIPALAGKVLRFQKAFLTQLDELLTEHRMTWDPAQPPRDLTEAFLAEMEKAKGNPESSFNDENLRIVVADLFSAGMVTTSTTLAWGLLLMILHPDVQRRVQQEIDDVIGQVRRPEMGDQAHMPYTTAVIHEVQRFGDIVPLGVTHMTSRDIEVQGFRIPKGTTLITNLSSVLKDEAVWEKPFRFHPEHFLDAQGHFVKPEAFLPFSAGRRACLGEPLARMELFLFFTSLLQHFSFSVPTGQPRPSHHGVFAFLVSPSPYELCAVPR
T1 sequence (P48736 whole entry, the tested form may be a part): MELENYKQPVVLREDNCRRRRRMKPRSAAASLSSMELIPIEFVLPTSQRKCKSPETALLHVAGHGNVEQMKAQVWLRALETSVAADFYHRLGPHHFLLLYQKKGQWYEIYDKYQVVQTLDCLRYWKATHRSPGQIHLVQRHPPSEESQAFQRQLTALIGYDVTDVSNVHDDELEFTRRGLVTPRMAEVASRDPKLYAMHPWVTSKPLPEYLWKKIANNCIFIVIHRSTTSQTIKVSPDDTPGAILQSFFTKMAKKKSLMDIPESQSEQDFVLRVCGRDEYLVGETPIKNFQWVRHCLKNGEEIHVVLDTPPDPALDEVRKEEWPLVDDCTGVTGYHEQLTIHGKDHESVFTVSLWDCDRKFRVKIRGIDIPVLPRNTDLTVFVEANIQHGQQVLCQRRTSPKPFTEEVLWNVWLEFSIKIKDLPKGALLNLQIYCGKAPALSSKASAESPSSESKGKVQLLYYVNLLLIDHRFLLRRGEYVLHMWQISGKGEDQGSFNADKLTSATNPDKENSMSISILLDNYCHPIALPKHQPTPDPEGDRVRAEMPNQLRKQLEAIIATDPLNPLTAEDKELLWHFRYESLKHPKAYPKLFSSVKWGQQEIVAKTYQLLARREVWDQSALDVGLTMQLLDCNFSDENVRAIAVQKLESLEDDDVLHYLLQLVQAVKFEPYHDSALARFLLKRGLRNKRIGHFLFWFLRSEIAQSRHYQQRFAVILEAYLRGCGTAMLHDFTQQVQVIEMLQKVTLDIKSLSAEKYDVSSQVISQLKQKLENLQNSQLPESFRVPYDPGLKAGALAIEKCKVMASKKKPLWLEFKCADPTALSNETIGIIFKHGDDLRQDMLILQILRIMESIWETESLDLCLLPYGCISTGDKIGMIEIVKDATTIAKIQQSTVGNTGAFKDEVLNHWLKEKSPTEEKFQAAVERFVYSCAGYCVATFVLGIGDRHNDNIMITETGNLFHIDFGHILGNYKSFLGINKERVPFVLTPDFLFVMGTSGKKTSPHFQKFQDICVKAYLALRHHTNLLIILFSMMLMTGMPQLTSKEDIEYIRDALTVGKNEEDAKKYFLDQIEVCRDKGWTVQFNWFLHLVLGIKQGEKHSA
T2 sequence (P08684 whole entry): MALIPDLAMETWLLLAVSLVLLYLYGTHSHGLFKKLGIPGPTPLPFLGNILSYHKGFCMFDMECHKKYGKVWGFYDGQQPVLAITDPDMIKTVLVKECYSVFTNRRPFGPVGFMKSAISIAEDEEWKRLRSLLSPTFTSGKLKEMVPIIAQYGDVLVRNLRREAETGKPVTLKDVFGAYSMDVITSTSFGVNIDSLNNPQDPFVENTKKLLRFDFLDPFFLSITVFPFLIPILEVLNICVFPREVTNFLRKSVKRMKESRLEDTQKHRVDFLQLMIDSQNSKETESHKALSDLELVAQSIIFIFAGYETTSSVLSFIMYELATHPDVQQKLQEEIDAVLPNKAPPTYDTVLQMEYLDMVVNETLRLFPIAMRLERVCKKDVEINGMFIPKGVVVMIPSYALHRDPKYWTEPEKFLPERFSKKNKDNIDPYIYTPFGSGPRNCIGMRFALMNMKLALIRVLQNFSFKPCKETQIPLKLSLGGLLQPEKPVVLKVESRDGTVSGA

| SMILES | inhibition at 50 µM [1] | Ki [2] | solubility at 16 h [3] | IC50 [4] | IC50 [5] | IC50 [6] | IC50 [7] | IC50 [8] |
| --- | --- | --- | --- | --- | --- | --- | --- | --- |
| COc1cccc(-c2ccc3nc(NC(=O)NCC(=O)O)cn3n2)c1 [Compound I-120] | 85% | 0.046 µM | > 50 µM | – | – | – | – | – |
| CNC(=O)Nc1cn2nc(-c3cncc(OC)c3)ccc2n1 [Compound I-144] | 83% | 0.052 µM | > 50 µM | – | – | – | – | – |
| COc1cncc(-c2ccc3nc(NC(=O)NCC(=O)O)cn3n2)c1 [Compound I-224] | 89% | 0.074 µM | > 50 µM | > 20 µM | > 20 µM | > 20 µM | > 20 µM | > 20 µM |
| COc1cccc(-c2ccc3nc(NC(=O)NCCC(=O)O)cn3n2)c1 [Compound I-260] | 73% | – | – | > 20 µM | > 20 µM | > 20 µM | > 20 µM | > 20 µM |
| COc1cccc(-c2ccc3nc(NC(=O)NCc4cc(=O)[nH]o4)cn3n2)c1 [Compound I-267] | 61% | – | – | > 20 µM | > 20 µM | > 20 µM | > 20 µM | > 20 µM |
| COc1cccc(-c2ccc3nc(NC(=O)NCc4nn[nH]n4)cn3n2)c1 [Compound I-292] | 74% | – | > 50 µM | > 20 µM | > 20 µM | > 20 µM | > 20 µM | > 20 µM |
